The values that follow come from patent US12049450B2, “Pyridyloxy-carboxylate derivative and preparation method therefor, herbicidal composition, and use” (Qingdao Kingagroot Chemical Compound Co., Ltd., priority 2018, dated 2024).

What all share (assay): Post-emergence test experiment (greenhouse pot, spray at 2-3 leaf stage)
Common to all, as to format: in vivo
Conditions in all cases: 1000 g/ha; post-emergence spray at 2-3 leaf stage; assessed after 3 weeks; fresh weight inhibition rate

For experiment [1], the system named is Echinochloa crusgalli. In outline: (§1)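 Weed seeds sown in soil-filled pots in greenhouse, sprayed at 2-3 leaf stage (2 weeks after sowing) with compound in acetone/tween-80 plus methyl oleate emulsible concentrate (1.5 L/ha) diluted in water. Fresh-weight growth inhibition scored after 3 weeks on 0-5 scale (5: >85%, 0: <5%).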
Experiment [2] deals with Abutilon theophrasti. In outline: as §1
In experiment [3] the test system is Monochoria vaginalis. A digest of the protocol: as §1
Experiment [4] concerns Digitaria sanguinalis. A digest of the protocol:
as §1

The subject of experiment [5] is Galium spurium. In outline: as §1

Each structure is given as a SMILES string.

With `CC(Oc1nc(F)c(Cl)c(N)c1Cl)C(=O)OCc1ccc2c(ccn2C)c1` (stereo not drawn) [Compound 171], the “Activity level (growth inhibition rate) Echinochloa crusgalli” value in experiment [1] is reported as 5 (Level 5: the growth inhibition rate is greater than 85%). Besides, in experiment [2], the “Activity level (growth inhibition rate) Abutilon theophrasti” value is 5 (Level 5: the growth inhibition rate is greater than 85%). In addition, in experiment [3], the “Activity level (growth inhibition rate) Monochoria Vaginalis” value was 5 (Level 5: the growth inhibition rate is greater than 85%). Besides, the “Activity level (growth inhibition rate) Digitaria sanguinalis” value in experiment [4] is given as 5 (Level 5: the growth inhibition rate is greater than 85%). In experiment [5], the “Activity level (growth inhibition rate) Galium spurium” value was 5 (Level 5: the growth inhibition rate is greater than 85%).
For the compound `CCn1cnc2ccc(COC(=O)C(C)Oc3nc(F)c(Cl)c(N)c3Cl)cc21` (stereo not drawn) [Compound 172], in experiment [1], the “Activity level (growth inhibition rate) Echinochloa crusgalli” value is reported as 5 (Level 5: the growth inhibition rate is greater than 85%). Besides, the “Activity level (growth inhibition rate) Abutilon theophrasti” value in experiment [2] is 5 (Level 5: the growth inhibition rate is greater than 85%). For the same compound, the “Activity level (growth inhibition rate) Monochoria Vaginalis” value in experiment [3] is listed as 5 (Level 5: the growth inhibition rate is greater than 85%). Also, the “Activity level (growth inhibition rate) Digitaria sanguinalis” value in experiment [4] is given as 5 (Level 5: the growth inhibition rate is greater than 85%). For the same compound, in experiment [5], the “Activity level (growth inhibition rate) Galium spurium” value is 5 (Level 5: the growth inhibition rate is greater than 85%).
Take `CC(Oc1nc(F)c(Cl)c(N)c1Cl)C(=O)OCc1cc2ccccc2o1` (stereo not drawn) [Compound 173]: in experiment [1], the “Activity level (growth inhibition rate) Echinochloa crusgalli” value is reported as 5 (Level 5: the growth inhibition rate is greater than 85%). The “Activity level (growth inhibition rate) Abutilon theophrasti” value in experiment [2] is given as 5 (Level 5: the growth inhibition rate is greater than 85%). Moreover, in experiment [3], the “Activity level (growth inhibition rate) Monochoria Vaginalis” value is 5 (Level 5: the growth inhibition rate is greater than 85%). The “Activity level (growth inhibition rate) Digitaria sanguinalis” value in experiment [4] is 5 (Level 5: the growth inhibition rate is greater than 85%). For the same compound, the “Activity level (growth inhibition rate) Galium spurium” value in experiment [5] was 5 (Level 5: the growth inhibition rate is greater than 85%).
Turning to `CC(Oc1nc(F)c(Cl)c(N)c1Cl)C(=O)SCc1ccc2ncoc2c1` (stereo not drawn) [Compound 174], the “Activity level (growth inhibition rate) Echinochloa crusgalli” value in experiment [1] was 5 (Level 5: the growth inhibition rate is greater than 85%). Moreover, in experiment [2], the “Activity level (growth inhibition rate) Abutilon theophrasti” value was 5 (Level 5: the growth inhibition rate is greater than 85%). Also, the “Activity level (growth inhibition rate) Monochoria Vaginalis” value in experiment [3] is given as 5 (Level 5: the growth inhibition rate is greater than 85%). Besides, in experiment [4], the “Activity level (growth inhibition rate) Digitaria sanguinalis” value is 5 (Level 5: the growth inhibition rate is greater than 85%). The “Activity level (growth inhibition rate) Galium spurium” value in experiment [5] was 5 (Level 5: the growth inhibition rate is greater than 85%).
On to `Cc1nc2cc(COC(=O)C(C)Oc3nc(F)c(Cl)c(N)c3Cl)ccc2o1` (stereo not drawn) [Compound 175], for which, in experiment [1], the “Activity level (growth inhibition rate) Echinochloa crusgalli” value is on record as 5 (Level 5: the growth inhibition rate is greater than 85%). For the same compound, the “Activity level (growth inhibition rate) Abutilon theophrasti” value in experiment [2] was 5 (Level 5: the growth inhibition rate is greater than 85%). Also, the “Activity level (growth inhibition rate) Monochoria Vaginalis” value in experiment [3] is reported as 5 (Level 5: the growth inhibition rate is greater than 85%). Moreover, the “Activity level (growth inhibition rate) Digitaria sanguinalis” value in experiment [4] is given as 5 (Level 5: the growth inhibition rate is greater than 85%). Moreover, the “Activity level (growth inhibition rate) Galium spurium” value in experiment [5] is on record as 5 (Level 5: the growth inhibition rate is greater than 85%).
Turning to `CC(Oc1nc(F)c(Cl)c(N)c1Cl)C(=O)OCc1ccc2c(c1)OCO2` (stereo not drawn) [Compound 176], in experiment [1], the “Activity level (growth inhibition rate) Echinochloa crusgalli” value is recorded as 5 (Level 5: the growth inhibition rate is greater than 85%). Moreover, the “Activity level (growth inhibition rate) Abutilon theophrasti” value in experiment [2] is reported as 5 (Level 5: the growth inhibition rate is greater than 85%). The “Activity level (growth inhibition rate) Monochoria Vaginalis” value in experiment [3] was 5 (Level 5: the growth inhibition rate is greater than 85%). Moreover, in experiment [4], the “Activity level (growth inhibition rate) Digitaria sanguinalis” value was 5 (Level 5: the growth inhibition rate is greater than 85%). For the same compound, the “Activity level (growth inhibition rate) Galium spurium” value in experiment [5] is reported as 5 (Level 5: the growth inhibition rate is greater than 85%).
For `CC(Oc1nc(F)c(Cl)c(N)c1Cl)C(=O)OCc1cc2ccccc2s1` (stereo not drawn) [Compound 177], the “Activity level (growth inhibition rate) Echinochloa crusgalli” value in experiment [1] is reported as 5 (Level 5: the growth inhibition rate is greater than 85%). The “Activity level (growth inhibition rate) Abutilon theophrasti” value in experiment [2] is listed as 5 (Level 5: the growth inhibition rate is greater than 85%). Also, the “Activity level (growth inhibition rate) Monochoria Vaginalis” value in experiment [3] was 5 (Level 5: the growth inhibition rate is greater than 85%). The “Activity level (growth inhibition rate) Digitaria sanguinalis” value in experiment [4] is recorded as 5 (Level 5: the growth inhibition rate is greater than 85%). The “Activity level (growth inhibition rate) Galium spurium” value in experiment [5] is listed as 5 (Level 5: the growth inhibition rate is greater than 85%).
Turning to `CC(Oc1nc(F)c(Cl)c(N)c1Cl)C(=O)OCc1nc2ccccc2s1` (stereo not drawn) [Compound 178], in experiment [1], the “Activity level (growth inhibition rate) Echinochloa crusgalli” value is recorded as 5 (Level 5: the growth inhibition rate is greater than 85%). For the same compound, the “Activity level (growth inhibition rate) Abutilon theophrasti” value in experiment [2] was 5 (Level 5: the growth inhibition rate is greater than 85%). The “Activity level (growth inhibition rate) Monochoria Vaginalis” value in experiment [3] is listed as 5 (Level 5: the growth inhibition rate is greater than 85%). For the same compound, the “Activity level (growth inhibition rate) Digitaria sanguinalis” value in experiment [4] was 5 (Level 5: the growth inhibition rate is greater than 85%). In addition, the “Activity level (growth inhibition rate) Galium spurium” value in experiment [5] was 5 (Level 5: the growth inhibition rate is greater than 85%).
Consider `CC(Oc1nc(F)c(Cl)c(N)c1Cl)C(=O)SCCc1ccc2ccsc2c1` (stereo not drawn) [Compound 179], for which the “Activity level (growth inhibition rate) Echinochloa crusgalli” value in experiment [1] was 5 (Level 5: the growth inhibition rate is greater than 85%). In addition, the “Activity level (growth inhibition rate) Abutilon theophrasti” value in experiment [2] is reported as 5 (Level 5: the growth inhibition rate is greater than 85%). Also, in experiment [3], the “Activity level (growth inhibition rate) Monochoria Vaginalis” value is on record as 5 (Level 5: the growth inhibition rate is greater than 85%). In experiment [4], the “Activity level (growth inhibition rate) Digitaria sanguinalis” value was 5 (Level 5: the growth inhibition rate is greater than 85%). Further, in experiment [5], the “Activity level (growth inhibition rate) Galium spurium” value was 5 (Level 5: the growth inhibition rate is greater than 85%).
`CC(Oc1nc(F)c(Cl)c(N)c1Cl)C(=O)OCc1ccc2ncsc2c1` (stereo not drawn) [Compound 180]: the “Activity level (growth inhibition rate) Echinochloa crusgalli” value in experiment [1] is given as 5 (Level 5: the growth inhibition rate is greater than 85%). In experiment [2], the “Activity level (growth inhibition rate) Abutilon theophrasti” value is reported as 5 (Level 5: the growth inhibition rate is greater than 85%). The “Activity level (growth inhibition rate) Monochoria Vaginalis” value in experiment [3] was 5 (Level 5: the growth inhibition rate is greater than 85%). Besides, in experiment [4], the “Activity level (growth inhibition rate) Digitaria sanguinalis” value is 5 (Level 5: the growth inhibition rate is greater than 85%). The “Activity level (growth inhibition rate) Galium spurium” value in experiment [5] was 5 (Level 5: the growth inhibition rate is greater than 85%).
On to `CC(Oc1nc(F)c(Cl)c(N)c1Cl)C(=O)OCc1ccc2ccccc2c1` (stereo not drawn) [Compound 181], for which, in experiment [1], the “Activity level (growth inhibition rate) Echinochloa crusgalli” value is reported as 5 (Level 5: the growth inhibition rate is greater than 85%). Besides, the “Activity level (growth inhibition rate) Abutilon theophrasti” value in experiment [2] is given as 5 (Level 5: the growth inhibition rate is greater than 85%). In addition, in experiment [3], the “Activity level (growth inhibition rate) Monochoria Vaginalis” value is recorded as 5 (Level 5: the growth inhibition rate is greater than 85%). In addition, in experiment [4], the “Activity level (growth inhibition rate) Digitaria sanguinalis” value is 5 (Level 5: the growth inhibition rate is greater than 85%). For the same compound, in experiment [5], the “Activity level (growth inhibition rate) Galium spurium” value is 5 (Level 5: the growth inhibition rate is greater than 85%).
For the compound `CC(Oc1nc(F)c(Cl)c(N)c1Cl)C(=O)SCc1ccc2cc(Cl)ccc2c1` (stereo not drawn) [Compound 182], in experiment [1], the “Activity level (growth inhibition rate) Echinochloa crusgalli” value is recorded as 5 (Level 5: the growth inhibition rate is greater than 85%). In addition, the “Activity level (growth inhibition rate) Abutilon theophrasti” value in experiment [2] is 5 (Level 5: the growth inhibition rate is greater than 85%). For the same compound, the “Activity level (growth inhibition rate) Monochoria Vaginalis” value in experiment [3] is listed as 5 (Level 5: the growth inhibition rate is greater than 85%). The “Activity level (growth inhibition rate) Digitaria sanguinalis” value in experiment [4] is reported as 5 (Level 5: the growth inhibition rate is greater than 85%). In addition, in experiment [5], the “Activity level (growth inhibition rate) Galium spurium” value was 5 (Level 5: the growth inhibition rate is greater than 85%).
As for `COc1ccc2ccc(COC(=O)C(C)Oc3nc(F)c(Cl)c(N)c3Cl)cc2c1` (stereo not drawn) [Compound 183], the “Activity level (growth inhibition rate) Echinochloa crusgalli” value in experiment [1] is listed as 5 (Level 5: the growth inhibition rate is greater than 85%). The “Activity level (growth inhibition rate) Abutilon theophrasti” value in experiment [2] was 5 (Level 5: the growth inhibition rate is greater than 85%). The “Activity level (growth inhibition rate) Monochoria Vaginalis” value in experiment [3] is 5 (Level 5: the growth inhibition rate is greater than 85%). Besides, the “Activity level (growth inhibition rate) Digitaria sanguinalis” value in experiment [4] is 5 (Level 5: the growth inhibition rate is greater than 85%). Also, the “Activity level (growth inhibition rate) Galium spurium” value in experiment [5] is 5 (Level 5: the growth inhibition rate is greater than 85%).
Consider `CC(Oc1nc(F)c(Cl)c(N)c1Cl)C(=O)OCc1ccc2cnccc2c1` (stereo not drawn) [Compound 184], for which the “Activity level (growth inhibition rate) Echinochloa crusgalli” value in experiment [1] is on record as 5 (Level 5: the growth inhibition rate is greater than 85%). Besides, the “Activity level (growth inhibition rate) Abutilon theophrasti” value in experiment [2] was 5 (Level 5: the growth inhibition rate is greater than 85%). For the same compound, in experiment [3], the “Activity level (growth inhibition rate) Monochoria Vaginalis” value is recorded as 5 (Level 5: the growth inhibition rate is greater than 85%). In experiment [4], the “Activity level (growth inhibition rate) Digitaria sanguinalis” value is 5 (Level 5: the growth inhibition rate is greater than 85%). Further, in experiment [5], the “Activity level (growth inhibition rate) Galium spurium” value is 5 (Level 5: the growth inhibition rate is greater than 85%).
With `CC(Oc1nc(F)c(Cl)c(N)c1Cl)C(=O)OCc1ccc2nccnc2c1` (stereo not drawn) [Compound 186], the “Activity level (growth inhibition rate) Echinochloa crusgalli” value in experiment [1] was 5 (Level 5: the growth inhibition rate is greater than 85%). The “Activity level (growth inhibition rate) Abutilon theophrasti” value in experiment [2] was 5 (Level 5: the growth inhibition rate is greater than 85%). The “Activity level (growth inhibition rate) Monochoria Vaginalis” value in experiment [3] was 5 (Level 5: the growth inhibition rate is greater than 85%). In addition, the “Activity level (growth inhibition rate) Digitaria sanguinalis” value in experiment [4] is listed as 5 (Level 5: the growth inhibition rate is greater than 85%). In experiment [5], the “Activity level (growth inhibition rate) Galium spurium” value is listed as 5 (Level 5: the growth inhibition rate is greater than 85%).
